Blank lines part the entries; values can stand above or below the compound they belong to.
Test system: 186277-243-T-J2-PDC complex spheroid viability
Test: Anticancer human tumor 186277-243-T-J2-PDC patient-derived colon adenocarcinoma cell line growth inhibition [GQUAD]
Settings: for IC50: curve of first compound; for viability, T/C: stronger effect = lower value
In short: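 Tumor cells were grown as complex spheroids with HUVEC endothelial cells and mesenchymal stem cells as stroma. G-quadruplex stabilizers were combined with targeted agents over half-log dilutions from near the clinical Cmax, or from 10 microM.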

[1] = second compound 0.0316 µM, first compound 0.0316 µM
[2] = second compound 0.0316 µM, first compound 0.1 µM
[3] = second compound 0.0316 µM, first compound 0.316 µM
[4] = second compound 0.0316 µM, first compound 1 µM
[5] = second compound 0.0316 µM, first compound 3.16 µM
[6] = second compound 0.0316 µM, first compound 10 µM
[7] = second compound 0.1 µM, first compound 0.0316 µM
[8] = second compound 0.1 µM, first compound 0.1 µM
[9] = second compound 0.1 µM, first compound 0.316 µM
[10] = second compound 0.1 µM, first compound 1 µM
[11] = second compound 0.1 µM, first compound 3.16 µM
[12] = second compound 0.1 µM, first compound 10 µM
[13] = second compound 0.316 µM, first compound 0.0316 µM
[14] = second compound 0.316 µM, first compound 0.1 µM
[15] = second compound 0.316 µM, first compound 0.316 µM
[16] = second compound 0.316 µM, first compound 1 µM
[17] = second compound 0.316 µM, first compound 3.16 µM
[18] = second compound 0.316 µM, first compound 10 µM
[19] = second compound 1 µM, first compound 0.0316 µM
[20] = second compound 1 µM, first compound 0.1 µM
[21] = second compound 1 µM, first compound 0.316 µM
[22] = second compound 1 µM, first compound 1 µM
[23] = second compound 1 µM, first compound 3.16 µM
[24] = second compound 1 µM, first compound 10 µM
[25] = second compound 3.16 µM, first compound 0.0316 µM
[26] = second compound 3.16 µM, first compound 0.1 µM
[27] = second compound 3.16 µM, first compound 0.316 µM
[28] = second compound 3.16 µM, first compound 1 µM
[29] = second compound 3.16 µM, first compound 3.16 µM
[30] = second compound 3.16 µM, first compound 10 µM
[31] = second compound 10 µM, first compound 0.0316 µM
[32] = second compound 10 µM, first compound 0.1 µM
[33] = second compound 10 µM, first compound 0.316 µM
[34] = second compound 10 µM, first compound 1 µM
[35] = second compound 10 µM, first compound 3.16 µM
[36] = second compound 10 µM, first compound 10 µM
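Also: spheroids exposed to drugs for 7 days.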
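For viability, T/C in this document: 100% = DMSO vehicle control viability.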

IC50 (second compound 0.0316 µM): 58.7 nM
IC50 (second compound 0.1 µM): < 31.6 nM
IC50 (second compound 0.316 µM): < 31.6 nM
IC50 (second compound 1 µM): < 31.6 nM
IC50 (second compound 3.16 µM): < 31.6 nM
IC50 (second compound 10 µM): < 31.6 nM
Structure (SMILES): C#Cc1c(F)ccc2cc(O)cc(-c3ncc4c(N5CC6CCC(C5)N6)nc(OCC56CCCN5CC(F)C6)nc4c3F)c12 (stereo unspecified) + Cc1cnc(CNC(=O)c2c(=O)c3ccc(N4CCCN(C)CC4)nc3n3c2sc2ccccc23)cn1
viability, T/C [1]: 75.4%
viability, T/C [2]: 26.8%
viability, T/C [3]: 19.9%
viability, T/C [4]: 8.12%
viability, T/C [5]: 13.9%
viability, T/C [6]: 11.4%
viability, T/C [7]: 40%
viability, T/C [8]: 18.8%
viability, T/C [9]: 9.79%
viability, T/C [10]: 7.98%
viability, T/C [11]: 9.12%
viability, T/C [12]: 5.32%
viability, T/C [13]: 23.8%
viability, T/C [14]: 14.6%
viability, T/C [15]: 8.91%
viability, T/C [16]: 5.69%
viability, T/C [17]: 5.84%
viability, T/C [18]: 4.29%
viability, T/C [19]: 18.2%
viability, T/C [20]: 9.62%
viability, T/C [21]: 6.74%
viability, T/C [22]: 5.02%
viability, T/C [23]: 5.11%
viability, T/C [24]: 3.11%
viability, T/C [25]: 17.2%
viability, T/C [26]: 12.5%
viability, T/C [27]: 5.45%
viability, T/C [28]: 4.44%
viability, T/C [29]: 4.72%
viability, T/C [30]: 2.99%
viability, T/C [31]: 14.2%
viability, T/C [32]: 9.54%
viability, T/C [33]: 4.98%
viability, T/C [34]: 0.27%
viability, T/C [35]: 2.03%
viability, T/C [36]: 0.19%

IC50 (second compound 0.0316 µM): 117 nM
IC50 (second compound 0.1 µM): < 31.6 nM
IC50 (second compound 0.316 µM): 35.1 nM
IC50 (second compound 1 µM): < 31.6 nM
IC50 (second compound 3.16 µM): < 31.6 nM
IC50 (second compound 10 µM): < 31.6 nM
Structure (SMILES): C=CCn1c(=O)c2cnc(Nc3ccc(N4CCN(C)CC4)cc3)nc2n1-c1cccc(C(C)(C)O)n1 + Cc1cnc(CNC(=O)c2c(=O)c3ccc(N4CCCN(C)CC4)nc3n3c2sc2ccccc23)cn1
viability, T/C [1]: 93.8%
viability, T/C [2]: 54.3%
viability, T/C [3]: 22%
viability, T/C [4]: 10.2%
viability, T/C [5]: 12.2%
viability, T/C [6]: 15.5%
viability, T/C [7]: 49.1%
viability, T/C [8]: 44.2%
viability, T/C [9]: 25.8%
viability, T/C [10]: 14.7%
viability, T/C [11]: 13.8%
viability, T/C [12]: 20.5%
viability, T/C [13]: 51.8%
viability, T/C [14]: 46.4%
viability, T/C [15]: 33.5%
viability, T/C [16]: 17.6%
viability, T/C [17]: 17.8%
viability, T/C [18]: 24.1%
viability, T/C [19]: 27.7%
viability, T/C [20]: 35.9%
viability, T/C [21]: 30.5%
viability, T/C [22]: 24.4%
viability, T/C [23]: 23.5%
viability, T/C [24]: 26.4%
viability, T/C [25]: 34.5%
viability, T/C [26]: 31.7%
viability, T/C [27]: 34.5%
viability, T/C [28]: 21.9%
viability, T/C [29]: 23.4%
viability, T/C [30]: 22.6%
viability, T/C [31]: 31.8%
viability, T/C [32]: 31.6%
viability, T/C [33]: 31.5%
viability, T/C [34]: 22.9%
viability, T/C [35]: 22.8%
viability, T/C [36]: 24.4%

IC50 (second compound 0.0316 µM): < 31.6 nM
IC50 (second compound 0.1 µM): < 31.6 nM
IC50 (second compound 0.316 µM): < 31.6 nM
IC50 (second compound 1 µM): < 31.6 nM
IC50 (second compound 3.16 µM): < 31.6 nM
IC50 (second compound 10 µM): < 31.6 nM
Structure (SMILES): CC(=O)O[C@H]1C(=O)[C@@]2(C)[C@H]([C@H](OC(=O)c3ccccc3)[C@]3(O)C[C@H](OC(=O)[C@H](O)[C@@H](NC(=O)c4ccccc4)c4ccccc4)C(C)=C1C3(C)C)[C@]1(OC(C)=O)CO[C@@H]1C[C@@H]2O + Cc1cnc(CNC(=O)c2c(=O)c3ccc(N4CCCN(C)CC4)nc3n3c2sc2ccccc23)cn1
viability, T/C [1]: 25.6%
viability, T/C [2]: 11.8%
viability, T/C [3]: 7.83%
viability, T/C [4]: 7.31%
viability, T/C [5]: 7.28%
viability, T/C [6]: 7.34%
viability, T/C [7]: 26.4%
viability, T/C [8]: 18.3%
viability, T/C [9]: 11.9%
viability, T/C [10]: 11.9%
viability, T/C [11]: 11%
viability, T/C [12]: 10.4%
viability, T/C [13]: 32.6%
viability, T/C [14]: 18.1%
viability, T/C [15]: 18.1%
viability, T/C [16]: 20.5%
viability, T/C [17]: 17%
viability, T/C [18]: 16.6%
viability, T/C [19]: 29.4%
viability, T/C [20]: 29.9%
viability, T/C [21]: 23.1%
viability, T/C [22]: 25.1%
viability, T/C [23]: 23.8%
viability, T/C [24]: 21.5%
viability, T/C [25]: 24.4%
viability, T/C [26]: 27%
viability, T/C [27]: 24%
viability, T/C [28]: 23.5%
viability, T/C [29]: 25.5%
viability, T/C [30]: 22.3%
viability, T/C [31]: 29.8%
viability, T/C [32]: 25.5%
viability, T/C [33]: 26.1%
viability, T/C [34]: 25.2%
viability, T/C [35]: 24.8%
viability, T/C [36]: 23.7%

Source: PubChem BioAssay AID2060512 (Molecular Pharmacology Branch, DTP, NCI, 2025)
